Here are results for 1 molecule from PMC5005338, “Escherichia coli Type III Secretion System 2 ATPase EivC Is Involved in the Motility and Virulence of Avian Pathogenic Escherichia coli” (Frontiers in Microbiology, 2016).

For this experiment, the target named is EivC (His-EivC) (Escherichia coli, UniProt A0A160EFI3). The conditions noted are these: 30 min assay; His-tagged protein.
Chain of EivC (His-EivC) (A0A160EFI3 entry or part of it): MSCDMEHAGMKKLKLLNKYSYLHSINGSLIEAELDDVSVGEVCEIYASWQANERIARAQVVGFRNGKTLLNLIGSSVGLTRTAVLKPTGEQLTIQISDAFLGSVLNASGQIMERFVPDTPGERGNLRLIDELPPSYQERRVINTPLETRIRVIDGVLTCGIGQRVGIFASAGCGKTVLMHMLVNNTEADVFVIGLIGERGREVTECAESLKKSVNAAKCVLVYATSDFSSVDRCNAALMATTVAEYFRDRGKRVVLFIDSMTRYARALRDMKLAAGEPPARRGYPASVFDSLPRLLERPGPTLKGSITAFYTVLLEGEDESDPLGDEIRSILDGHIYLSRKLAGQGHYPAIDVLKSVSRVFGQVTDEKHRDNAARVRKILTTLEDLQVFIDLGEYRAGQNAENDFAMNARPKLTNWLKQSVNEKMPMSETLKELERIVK

Regarding `Nc1ncnc2c1ncn2[C@@H]1O[C@H](COP(=O)(O)OP(=O)(O)OP(=O)(O)O)[C@@H](O)[C@H]1O` [ATP], the “phosphate release, malachite green ATPase assay kit” value is “a His-EivC fusion protein was purified and tested for its ability to hydrolyze ATP”.
